Measured values: US8530475B2, “Bridged aryl piperazines derivatives useful for the treatment of CNS, GI-urinary and reproductive disorders” (Janssen Pharmaceutica NV, priority 2006, dated 2013)
Where “and” joins values, the source holds several entries; their conditions need not be identical. Equal values may be shown once. Read-outs that look alike come from different tables or passages of the source.

Assays:
[1] = target: T1, human 5HT1A receptor (Homo sapiens, UniProt P08908); assay: Radioligand binding to the 5-HT1A receptor, [3H]8-OH-DPAT; details: Example 77, membranes of HEK293 cells, [3H]8-OH-DPAT 0.5 nM, <5 = not active at up to 10 μM; for IC50: read-out: h5HT1A pIC50 (converted)
T1 construct: purchased Perkin Elmer; host or cells: HEK293 cells, stably transfected (membranes)
T1 sequence (P08908 1-422): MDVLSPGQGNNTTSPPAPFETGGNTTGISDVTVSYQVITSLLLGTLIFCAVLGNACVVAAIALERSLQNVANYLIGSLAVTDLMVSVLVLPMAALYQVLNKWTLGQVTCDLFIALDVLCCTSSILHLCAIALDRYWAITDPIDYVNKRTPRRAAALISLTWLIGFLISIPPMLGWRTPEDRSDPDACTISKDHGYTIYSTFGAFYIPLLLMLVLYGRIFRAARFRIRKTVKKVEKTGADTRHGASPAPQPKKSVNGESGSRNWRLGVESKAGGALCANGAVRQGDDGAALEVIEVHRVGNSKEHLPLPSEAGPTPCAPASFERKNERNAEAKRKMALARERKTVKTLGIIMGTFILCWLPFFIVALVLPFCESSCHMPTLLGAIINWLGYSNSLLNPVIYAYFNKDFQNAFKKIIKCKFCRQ
Protocol: Frozen membranes of HEK293 cells, stably-transfected with human 5-HT1A receptor (Perkin Elmer) were thawed on ice, briefly homogenised with an Ultra Turrax homogeniser and then suspended in Tris-HCl buffer (50 mM pH 7.7) supplemented with CaCl2 (4 mM) at an appropriate pre-determined protein concentration (5-10 μg protein per incubation mixture). Together with [^3H]8-OH-DPAT (0.5 nM final concentration; Perkin Elmer, USA), the membrane suspension was added to the test compound and incubated (30 min at 37° C.) in a total volume of 400 μl. Non-specific binding was determined in the presence of Spiroxatrine (1 μM). Free radioligand was separated from the radioligand-receptor complex by means of rapid vacuum filtration over GF/B unifilter plates with a Packard Harvester Filtration Unit. Unifilter plates were washed with ice cold Tris-HCl buffer (50 mM, pH 8.0) and then dried overnight. Bound counts were measured in a Topcount Scintillation Counter in the presence of Microscint O.

[2] = target: T1, human 5HT1A receptor; assay: [35S]GTPγS binding for 5-HT1A receptor inhibition (antagonist mode); assay type: biochemical; details: Example 78, HEK293 membranes, antagonist mode with serotonin 100 nM, <5 = not active at up to 10 μM; for IC50: read-out: h5HT1A Antagonist pIC50 (converted)
Protocol: Compounds showing affinity at the 5-HT1A receptor were tested for functional agonism and antagonism in a [^35S]GTPγS (guanine triphosphate (non-hydrolysable, labelled with ^35S) binding assay on membranes of HEK293 cells permanently transfected with human 5HT1A receptor (Perkin Elmer, USA).
Frozen membranes were thawed, briefly homogenized and were diluted in incubation buffer, 100 mM NaCl, 0.3 mM MgCl2 and 10 μM guanine diphosphate (GDP), pH 7.4-7.5) supplemented with 10 μg/ml saponin. Assay mixtures contained 10 μg of membrane protein and test compound, buffer, or control agonist (serotonin, 10 μM). For the antagonistic assay, control agonist was present in all wells containing compound at a sub-maximal concentration (serotonin, 100 nM). After 20 minutes pre-incubation at 37° C., [^35S]GTPγS was added to a final concentration of 0.25 nM, briefly shaken and further incubated for another 20 minutes. Reactions were terminated by rapid vacuum filtration through GF/B unifilter plates using a Packard Harvester. Filters were washed three times with wash buffer (10 mM NaH2PO4, 10 mM Na2HPO4, pH 7.4), dried overnight and bound counts were measured in a Topcount Scintillation Counter in the presence of Microscint O. % Specific Binding was calculated and curves were plotted with help of in house software where pIC50 values were determined and Kb values were calculated.

[3] = target: T2, human 5-HTT (Homo sapiens, UniProt P31645); assay: Radioligand binding to 5-HTT (serotonin transporter, SERT), [3H]Paroxetine; details: membranes of HEK293 cells, [3H]Paroxetine 0.5 nM, <5 = not active at up to 10 μM
T2 construct: purchased Perkin-Elmer, USA; host or cells: HEK293 cells, stably transfected (membranes)
T2 sequence (P31645 whole entry): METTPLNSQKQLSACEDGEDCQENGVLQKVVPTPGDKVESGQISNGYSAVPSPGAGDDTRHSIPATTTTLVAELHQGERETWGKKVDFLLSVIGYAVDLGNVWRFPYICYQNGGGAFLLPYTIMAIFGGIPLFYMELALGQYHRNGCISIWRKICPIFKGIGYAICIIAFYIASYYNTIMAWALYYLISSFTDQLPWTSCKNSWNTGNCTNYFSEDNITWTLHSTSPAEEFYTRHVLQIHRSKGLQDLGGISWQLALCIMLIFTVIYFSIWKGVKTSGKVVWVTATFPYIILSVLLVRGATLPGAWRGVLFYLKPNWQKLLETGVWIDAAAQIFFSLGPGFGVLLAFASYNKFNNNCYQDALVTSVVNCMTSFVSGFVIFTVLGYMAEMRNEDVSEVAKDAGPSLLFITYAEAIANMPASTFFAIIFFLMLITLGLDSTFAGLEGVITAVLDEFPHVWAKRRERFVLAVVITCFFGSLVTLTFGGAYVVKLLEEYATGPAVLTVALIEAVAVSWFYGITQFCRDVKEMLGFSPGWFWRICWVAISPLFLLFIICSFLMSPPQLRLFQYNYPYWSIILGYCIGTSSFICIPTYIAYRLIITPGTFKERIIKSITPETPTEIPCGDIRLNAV
Protocol: For 5-HTT binding, frozen membranes of HEK293 cells stably-transfected with human 5-HTT (Perkin-Elmer, USA) were thawed on ice, briefly homogenised and resuspended in Tris-HCl buffer (50 mM, pH 7.4) supplemented with NaCl (120 mM) and KCl (5 mM) at a concentration of 50 μg protein per incubation mixture. The membrane suspension was added to the test compound together with [^3H]Paroxetine (0.5 nM) in a total volume of 250 μl and incubated (60 min, 25° C.). Non-specific binding was determined in the presence of imipramine (1 μM). Filtration was done over pre-soaked GF/B unifilters (0.01% PEI) and washed as above with the Tris-HCl salt buffer used for the incubation. Specific binding was calculated and sigmoidal curves were plotted by an internally-developed software program based on S-plus software. Ki values were calculated using the Cheng-Prusoff equation.

[4] = Example 77, read-out: h5HTT pIC50 (converted)

Structure (SMILES): Cn1ccc2c(OC[C@@H](O)CN3C[C@H]4C/C=C\C[C@@H]3CN4c3ccc4ccccc4c3)cccc21 [compound 156]
- IC50 [1]: > 10000 nM
- IC50 [2]: > 10000 nM
- IC50 [3, 4]: 29.5 nM

Structure (SMILES): Cc1cc2c(OC[C@H](O)CN3C[C@H]4C/C=C\C[C@@H]3CN4c3ccc4ccccc4c3)cccc2[nH]1 [compound 55]
- h5HT1A pIC50 [1]: 6.88
- h5HT1A Antagonist pIC50 [2]: <5
- h5HTT pIC50 ([3]; Example 77): 6.86

Structure (SMILES): O[C@H](COc1cccc2ncccc12)CN1C[C@@H]2C/C=C\C[C@H]1CN2c1ccc2ccccc2c1 [compound 160]
- IC50 [1]: 355 nM
- IC50 [2]: 851 nM
- IC50 [3, 4]: 63.1 nM

Structure (SMILES): COC(=O)c1cc2c(OC[C@@H](O)CN3C[C@@H]4C/C=C\C[C@H]3CN4c3ccc4ccccc4c3)ccc(Cl)c2[nH]1 [compound 128]
- IC50 [1]: 562 nM
- IC50 [2]: > 10000 nM
- IC50 [3, 4]: 30.2 nM

Structure (SMILES): Cc1cc2c(OC[C@H](O)CN3CC4CC=CCC3CN4c3ccc4ccccc4c3)cccc2[nH]1 (stereo partly drawn) [compound 153]
- IC50 [1]: 933 nM
- IC50 [2]: > 10000 nM
- IC50 [3, 4]: 57.5 nM

Structure (SMILES): Cc1cc2c(OC[C@@H](O)CN3C[C@@H]4C/C=C\C[C@H]3CN4c3ccc4ccccc4c3)c(C)ccc2[nH]1 [compound 154]
- IC50 [1]: 724 nM
- IC50 [2]: > 10000 nM
- IC50 [3, 4]: 55 nM

Structure (SMILES): Cc1cc2c(OC[C@@H](O)CN3CC4CC=CCC3CN4c3ccc4ccccc4c3)cccc2[nH]1 (stereo partly drawn) [compound 155]
- IC50 [1]: 52.5 nM and 115 nM
- IC50 [2]: > 10000 nM and 6310 nM
- IC50 [3, 4]: 110 nM and 214 nM

Structure (SMILES): C1=C\C[C@H]2CN[C@@H](C/1)CN2c1cccc2ccccc12 [compound 119]
- IC50 [1]: > 10000 nM
- IC50 ([3]; h5HTT pIC50, Example 77): 70.8 nM

Structure (SMILES): C1=C\C[C@H]2CN[C@@H](C/1)CN2c1cccc2ncccc12 [compound 137]
- IC50 [1]: 2340 nM
- IC50 [2]: > 10000 nM
- IC50 [3, 4]: 676 nM

Structure (SMILES): C#CCN1C[C@@H]2C/C=C\C[C@H]1CN2c1ccc2ccccc2c1 [compound 41]
- IC50 [1]: > 10000 nM
- IC50 [3, 4]: 85.1 nM

Structure (SMILES): C1=C\C[C@H]2CN(CCNc3ccccn3)[C@@H](C/1)CN2c1ccc2ccccc2c1 [compound 142]
- IC50 [1]: 9770 nM
- IC50 [2]: > 10000 nM
- IC50 [3, 4]: 102 nM

Structure (SMILES): COC(=O)c1cc2c(OC[C@@H](O)CN3C[C@@H]4C/C=C\C[C@H]3CN4c3ccc4ccccc4c3)cc(OC)cc2[nH]1 [compound 143]
- IC50 [1]: 240 nM
- IC50 [2]: > 10000 nM
- IC50 [3, 4]: 174 nM

Structure (SMILES): COC(=O)c1cc2c(OC[C@@H](O)CN3C[C@@H]4C/C=C\C[C@H]3CN4c3ccc4ccccc4c3)ccc(C)c2[nH]1 [compound 127]
- IC50 [1]: 363 nM
- IC50 [2]: > 10000 nM
- IC50 [3, 4]: 39.8 nM

Structure (SMILES): Cc1cc2c(OC[C@@H](O)CN3C[C@@H]4C/C=C\C[C@H]3CN4c3cnc4ccccc4c3)cccc2[nH]1 [compound 158]
- IC50 [1]: 126 nM
- IC50 [2]: 1150 nM
- IC50 [3, 4]: 251 nM

Structure (SMILES): Cc1cc2c(OC[C@@H](O)CN3C[C@@H]4C/C=C\C[C@H]3CN4c3cccc4ncccc34)cccc2[nH]1 [ID No. 136]
- IC50 [2]: 309 nM

Structure (SMILES): COc1cc2c(cc1OC)C1=NO[C@@H](CN3C[C@@H]4C/C=C\C[C@H]3CN4c3ccc4ccccc4c3)C1CO2 (stereo partly drawn) [compound 140]
- IC50 [1]: > 10000 nM
- IC50 [3, 4]: 741 nM

Structure (SMILES): Cc1cc2c(OC[C@@H](O)CN3C[C@@H]4C/C=C\C[C@H]3CN4c3cccc4ncccc34)cccc2[nH]1 [compound 157]
- IC50 [2]: 759 nM

Structure (SMILES): COC(=O)c1cc2c(OC[C@@H](O)CN3C[C@@H]4C/C=C\C[C@H]3CN4c3ccc4ccccc4c3)cccc2[nH]1 [compound 126]
- IC50 [1]: 50.1 nM
- IC50 [2]: > 10000 nM
- IC50 [3, 4]: 24 nM

Structure (SMILES): Cc1cc2c(OCCCN3C[C@@H]4C/C=C\C[C@H]3CN4c3ccc4ccccc4c3)cccc2[nH]1 [ID No. 138, 7-[3-(2-Methyl-1H-indol-4-yloxy)-propyl]-9-naphthalen-2-yl-7,9-diaza-bicyclo[4.2.2]dec-3-ene]
- IC50 [1]: 282 nM
- IC50 [2]: 11000 nM
- IC50 [3, 4]: 28.2 nM

Structure (SMILES): Cc1cc2c(OC[C@@H](O)CN3C[C@@H]4C/C=C\C[C@H]3CN4c3ccc(Cl)c(Cl)c3)cccc2[nH]1 [compound 135]
- IC50 [1]: 97.7 nM
- IC50 [2]: 813 nM
- IC50 [3, 4]: 102 nM

Structure (SMILES): Cc1cc2c(OC[C@@H](O)CN3C[C@@H]4C/C=C\C[C@H]3CN4c3ccc4ccccc4c3)c(F)ccc2[nH]1 [compound 148]
- IC50 [1]: 138 nM
- IC50 [2]: > 10000 nM
- IC50 [3, 4]: 53.7 nM

Structure (SMILES): C1=C\C[C@H]2CN(c3ccc4ccccc4c3)[C@@H](C/1)CN2C1Cc2ccccc2C1 [compound 150]
- IC50 [1]: > 10000 nM
- IC50 [3, 4]: 1910 nM

Structure (SMILES): Cc1cc2c(OC[C@@H](O)CN3C[C@@H]4C/C=C\C[C@H]3CN4c3ccc4c(c3)OCCO4)cccc2[nH]1 [compound 159]
- IC50 [1]: 10.7 nM
- IC50 [2]: 47.9 nM
- IC50 [3, 4]: 759 nM

Structure (SMILES): COc1cc2c(cc1OC)C1=NO[C@H](CN3C[C@@H]4C/C=C\C[C@H]3CN4c3ccc4ccccc4c3)C1CO2 (stereo partly drawn) [compound 141]
- IC50 [1]: > 10000 nM
- IC50 [3, 4]: 724 nM
